In patent US8937068B2, “Pyridopyrazine derivatives and their use” (Zentaris GmbH, priority 2005, dated 2015):

Key:
p38alpha = p38alpha (Homo sapiens (Human), UniProt Q16539); assay: Cell-free kinase assay (ALPHA technology), p38alpha; assay type: biochemical; details: 10 μM ATP
MDA-MB468 = assay: XTT assay, anti-proliferative effect, MDA-MB468; assay type: cell-based; details: 45 h incubation
Protocol: (§1) The principle of this test is based on the intracellular reduction of the tetrazolium dye XTT (sodium 3′-[1-(phenylaminocarbonyl)-3,4-tetrazolium]-bis(4-methoxy-6-nitro)benzene sulfonic acid, Sigma) to a formazan dye by mitochondrial dehydrogenases. The dye is only formed by metabolically active cells and its photometrically measurable intensity is a quantitative indicator for the presence of living cells. The reduction of dye formation by incubation of the cells with substances serves as a parameter for the anti-proliferative effect.
(§2) The tumour cell lines (ATCC) were injected into 96-well microtitre plates in a defined cell number (5000 cells/well for BxPC3 and Hct116; 10000 cells/well for MDA MB468) and then incubated overnight in an incubator at 37° C., 5% CO2 and 95% air humidity. The test substances were prepared as stock solutions (10 mM) in DMSO. […] The cell plates were then incubated for 45 h in an incubator at 37° C., 5% CO2 and 95% air humidity.
(§3) For the detection reaction the substrate XTT was mixed with PMS (N-Methyl dibenzopyrazine methylsulfate, Sigma) and added to the cells so that a final concentration of 325 μg XTT/ml and 2.5 μg PMS/ml was obtained. It was then incubated for 3 h at 37° C., 95% air humidity. The formazan salt formed by the cellular dehydrogenases could then be quantified by adsorption at 490 nm.
(§4) The % inhibition value was evaluated by means of the following formula from the values for the optical densities measured in each case at 490 nm:
(§5) Eight determinations were made for each control and two for the substance samples. The 0% control contains no cells, the 100% control (proliferation control) contains no test substance. The EC50 values were determined using GraphPadPrism.

Hct116 = assay: XTT assay, anti-proliferative effect, Hct116; assay type: cell-based; details: 45 h incubation
Protocol: as §1, §2, §3, §4, §5

Chain of p38alpha (Q16539 whole entry): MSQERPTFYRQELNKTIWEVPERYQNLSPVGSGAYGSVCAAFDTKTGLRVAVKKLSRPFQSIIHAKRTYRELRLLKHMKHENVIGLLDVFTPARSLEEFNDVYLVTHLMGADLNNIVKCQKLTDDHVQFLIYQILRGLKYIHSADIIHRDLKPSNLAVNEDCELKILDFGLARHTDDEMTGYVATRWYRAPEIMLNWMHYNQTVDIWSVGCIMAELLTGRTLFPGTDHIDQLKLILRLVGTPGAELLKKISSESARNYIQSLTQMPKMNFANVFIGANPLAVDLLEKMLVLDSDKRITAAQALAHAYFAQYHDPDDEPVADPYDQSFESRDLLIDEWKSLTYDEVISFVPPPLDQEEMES

Row | IC50 (p38alpha) [µM] | EC50 (MDA-MB468; Homo sapiens, MDA-MB-468) [µM] | EC50 (Hct116; Homo sapiens, HCT-116) [µM] | EC50 (MDA-MB468) [µM] | EC50 (Hct116) [µM] | Compound
1 | > 100 | 10 | 1.5 |  |  | CCNC(=O)Nc1ccc2ncc(-c3ccc(O)c(OC)c3)nc2n1 [Compound 124, 1-Ethyl-3-[3-(4-hydroxy-3-methoxy-phenyl)-pyrido[2,3-b]pyrazin-6-yl]-urea]
2 | > 100 | ~20 | 9.3 |  |  | O=C(NCCCCO)Nc1ccc2ncc(-c3ccccc3)nc2n1 [Compound 146, 1-(4-Hydroxy-butyl)-3-(3-phenyl-pyrido[2,3-b]pyrazin-6-yl)-urea]
3 | 18.1 | 4.3 | 2.3 |  |  | CCNC(=O)Nc1ccc2ncc(Nc3ccc(C)cc3)nc2n1 [Compound 150, 1-Ethyl-3-(3-p-tolylamino-pyrido[2,3-b]pyrazin-6-yl)-urea]
4 | > 100 | 4 | 6 |  |  | C=CCNC(=S)Nc1ccc2ncc(-c3ccc(O)cc3)nc2n1 [Compound 30, 1-allyl-3-[3-(4-hydroxy-phenyl)-pyrido[2,3-b]pyrazin-6-yl]-thiourea]
5 | > 100 |  |  | 4.3 | 2.1 | CCNC(=O)Nc1ccc2ncc(-c3ccc(O)c(OC)c3)nc2n1.Cc1ccc(S(=O)(=O)O)cc1 [Compound 183, 1-Ethyl-3-[3-(4-hydroxy-3-methoxy-phenyl)-pyrido[2,3-b]pyrazin-6-yl]-urea p-Toluolsulfonate]
6 | > 100 | > 25 | 9 |  |  | CCNC(=O)Nc1ccc2ncc(-c3cnn(C)c3)nc2n1 [Compound 173, 1-Ethyl-3-[3-(1-methyl-1H-pyrazol-4-yl)-pyrido[2,3-b]pyrazin-6-yl]-urea]
